# Tests used:
# blood D-glucose [1] = assay: Insulin eye drops with absorption enhancer in xylazine/ketamine-anesthetized hyperglycemic rats, blood D-glucose; format: in vivo, rat; details: for Blood Glucose Concentrations: insulin eye drops + 0.50% dodecyl maltoside
# [2] = Intranasal triptans with alkylsaccharide in rats, plasma levels by HPLC; format: in vivo;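 note: rats in groups of eight given 20 µL into one nostril, dose expressed as triptan free base, Cmax and Tmax read from plasma concentration–time curves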
# Procedure: Each set of drug solutions is administered to six groups of eight rats each by 20 uL instillation to a single nare of each animal. […] After the last blood sample is collected each animal is cuthanizcd with CO2. After blood collection, plasma is immediately prepared from each blood sample using lithium/heparin as the anticoagulant. Plasma samples are stored at −70° C. until analyzed. […] The observed Tmax values from each plot is determined by inspection of the concentration vs time plots and recorded as shown in Table XII. The doses designated in this table reflect amounts of triptan free base in each case.
# [3] = tested on: Aspergillus niger (ATCC No. 16404); assay: Antimicrobial activity of alkylglycoside solutions, plate count log reduction; format: cell-based; details: […]
# From the text: (§1) 20110-2209. The viable microorganisms used in the invention were not more than five passages removed from the original ATCC culture. As described herein, one passage is defined as the transfer of organisms from an established culture to fresh medium and all transfers are counted.
# (§2) Cultures received from the ATCC are resuscitated according to the directions provided by the ATTC. Cells grown in broth were pelleted by centrifugation, resuspended in 1/20th the volume of fresh maintenance broth, and combined with an equal volume of 20% (v/v in water) sterile glycerol. Cells grown on agar were scraped from the surface into the maintenance broth also containing 10% glycerol broth. Small aliquots of the suspension were dispensed into sterile vials and the vials were stored in liquid nitrogen or in a mechanical freezer at a temperature no higher than about −50° C. When a fresh seed-stock vial was required, it was removed and used to inoculate a series of working stock cultures. These working stock cultures were then used periodically (each day in the case of bacteria and yeast) to start the inoculum culture.
# (§3) The culture conditions for the inoculum culture is substantially as described in Table IV. For example, suitable media can include but is not limited to, Soybean-Casein Digest or Sabouraud Dextrose Agar Medium. […]
# (§4) The suspension should be refrigerated if it is not used within 2 hours. To confirm the initial cfu per mL estimate, the number of cfu per mL in each suspension was determined using the conditions of media and microbial recovery incubation times listed in Table IV (e.g., from about 3 to about 7 days). This value serves to calibrate the size of inoculum used in the test. The bacterial and yeast suspensions were used within 24 hours of harvest; whereas the fungal preparation can be stored under refrigeration for up to 7 days.
# (§5) To determine which alkylglycoside formulations have antibacterial activity, the formulations were prepared in phosphate buffered saline (PBS) at pH 7. As a source of nutrition, either 1.5 mg/mL bovine serum albumin (BSA; see Tables V and VI) or 1 mg/mL of PYY was added (see Table VII) to the medium. BSA (CAS Number: 9048-46-8) was obtained from Sigma-Aldrich, St. Louis, Mo., USA, n-dodecyl-4-O-α-D-glucopyranosyl-β-D-glucopyranoside and n-tetradecyl-4-O-α-D-glucopyranosyl-β-D-glucopyranoside were obtained from Anatrace Inc., Maumee, Ohio, USA, and PYY was obtained from Bachem California Inc., Torrance, Calif., USA.
# (§6) Antibacterial activity of the alkylglycosides were conducted in four sterile, capped bacteriological containers of suitable size into which a sufficient volume of alkylglycoside solution had been transferred. Each container was inoculated with one of the prepared and standardized inoculums and mixed. The volume of the suspension inoculum was between about 0.5% and about 1.0% of the volume of the alkylglycoside solution. […]. To determine the level of inhibition of growth, or reduction of growth based on a logarithmic scale, the initial concentration of viable microorganisms in each test preparation was estimated based on the concentration of microorganisms in each of the standardized inoculum as determined by the plate-count method. The inoculated containers were then incubated at about 22.5° C.±2.5. The growth or non-growth of the microorganisms in each culture/container were again determined at day 14 and day 28. The number of cfu present in each calculation was determined by the plate-count procedure standard in the art for the applicable intervals. The change in the orders of magnitude of bacterium and/or fungi was then determined by subtracting the first calculated log 10 values of the concentrations of cfu per mL present at the start or beginning (e.g., day 0), from the log 10 values of the concentration of cfu per mL for each microorganism at the applicable test intervals (e.g., day 14 and day 28; see Tables V, VI and VII).
# [4] = tested on: Candida albicans (ATCC No. 10231); assay: as above; format: cell-based; details: […]
# From the text: as §1, §2, §3, §4, §5, §6
# [5] = tested on: Staphylococcus aureus (ATCC No. 6538); assay: as above; format: cell-based; details: […]
# From the text: as §1, §2, §3, §4, §5, §6
# [6] = tested on: Escherichia coli (ATCC No. 8739); assay: as above; format: cell-based; details: […]
# From the text: as §1, §2, §3, §4, §5, §6
# human nasal epithelium = details: in vivo
# blood D-glucose [7] = assay: Glucagon eye drops with surfactant in rats, elevation of blood D-glucose; details: for Blood Glucose Concentration: glucagon eye drops + 0.5% surfactant added after 120 min
# Procedure: Glucagon absorption from the eye was measured in rats given eye drops containing various surfactants plus glucagon (30 μg) (Eli Lilly, Indianapolis, Ind.) by monitoring an elevation in blood D-glucose levels. In these experiments, rats were anesthetized with sodium pentobarbital rather than xylazine/ketamin.
# Paired animals that receive eye drops containing the surfactant alone, or glucagon alone, were compared to animals receiving eye drops with the surfactant plus glucagon.
# [8] = eye drops 0.2% insulin + 0.5% enhancer
# [9] = Naratriptan 0.22 mg/kg intranasal, alkylsaccharide 0.02%
# [10] = Naratriptan 0.22 mg/kg intranasal, alkylsaccharide 0.05%
# [11] = Naratriptan 0.22 mg/kg intranasal, alkylsaccharide 0.1%
# [12] = Naratriptan 0.22 mg/kg intranasal, alkylsaccharide 0.5%
# [13] = Naratriptan 0.22 mg/kg intranasal, alkylsaccharide 2%
# [14] = Rizatriptan […] intranasal, alkylsaccharide 0.02%
# [15] = Rizatriptan […] intranasal, alkylsaccharide 0.05%
# [16] = Rizatriptan […] intranasal, alkylsaccharide 0.1%
# [17] = Rizatriptan […] intranasal, alkylsaccharide 0.5%
# [18] = Rizatriptan […] intranasal, alkylsaccharide 2%
# [19] = Sumatriptan 6.2 mg/kg intranasal, alkylsaccharide 0.02%
# [20] = Sumatriptan 6.2 mg/kg intranasal, alkylsaccharide 0.05%
# [21] = Sumatriptan 6.2 mg/kg intranasal, alkylsaccharide 0.1%
# [22] = Sumatriptan 6.2 mg/kg intranasal, alkylsaccharide 0.5%
# [23] = Sumatriptan 6.2 mg/kg intranasal, alkylsaccharide 2%
structure (smiles),measurement,setting,value
"CCCCCCCCCCCCO[C@@H]1O[C@H](CO)[C@@H](O[C@H]2O[C@H](CO)[C@@H](O)[C@H](O)[C@H]2O)[C@H](O)[C@H]1O [dodecyl maltoside, n-dodecyl-4-O-α-D-glucopyranosyl-β-D-glucopyranoside]",hypoglycemic effect / insulin absorption enhancement,blood D-glucose [1]; [8],equally effective
same,hypoglycemic effect / insulin absorption enhancement,"blood D-glucose [1]; eye drops 0.2% insulin + 0.5% enhancer, listed as dodecyl-β3-D-maltoside",prompt and sustained fall in blood glucose levels
same,Blood Glucose Concentrations,blood D-glucose [1]; time 0 min,379 ± 4 mg/dL
same,Blood Glucose Concentrations,blood D-glucose [1]; time 30 min,297 ± 18 mg/dL
same,Blood Glucose Concentrations,blood D-glucose [1]; time 60 min,188 ± 25 mg/dL
same,Blood Glucose Concentrations,blood D-glucose [1]; time 90 min,141 ± 13 mg/dL
same,Blood Glucose Concentrations,blood D-glucose [1]; time 120 min,123 ± 5 mg/dL
same,Blood Glucose Concentrations,blood D-glucose [1]; time −10 min,366 ± 12 mg/dL
same,Blood Glucose Concentrations,blood D-glucose [1]; time −20 min,375 ± 9 mg/dL
same,Ratio Cmax(alkylsacch)/Cmax(No alkylsacch),[2]; [9],≦1.5
same,Tmax,[2]; [9],~60 to 120 min
same,Ratio Cmax(alkylsacch)/Cmax(No alkylsacch),[2]; [10],≧1.5
same,Tmax,[2]; [10],~5 to 15 min
same,Ratio Cmax(alkylsacch)/Cmax(No alkylsacch),[2]; [11],≧1.5
same,Tmax,[2]; [11],~5 to 15 min
same,Ratio Cmax(alkylsacch)/Cmax(No alkylsacch),[2]; [12],≧1.5
same,Tmax,[2]; [12],~5 to 15 min
same,Ratio Cmax(alkylsacch)/Cmax(No alkylsacch),[2]; [13],≧1.5
same,Tmax,[2]; [13],~5 to 15 min
same,Tmax,[2]; [14],~60 to 120 min
same,Tmax,[2]; [15],~5 to 15 min
same,Tmax,[2]; [16],~5 to 15 min
same,Tmax,[2]; [17],~5 to 15 min
same,Tmax,[2]; [18],~5 to 15 min
same,Ratio Cmax(alkylsacch)/Cmax(No alkylsacch),[2]; [19],≦1.5
same,Tmax,[2]; [19],~60 to 120 min
same,Ratio Cmax(alkylsacch)/Cmax(No alkylsacch),[2]; [20],≧1.5
same,Tmax,[2]; [20],~5 to 15 min
same,Ratio Cmax(alkylsacch)/Cmax(No alkylsacch),[2]; [21],≧1.5
same,Tmax,[2]; [21],~5 to 15 min
same,Ratio Cmax(alkylsacch)/Cmax(No alkylsacch),[2]; [22],≧1.5
same,Tmax,[2]; [22],~5 to 15 min
same,Ratio Cmax(alkylsacch)/Cmax(No alkylsacch),[2]; [23],≧1.5
same,Tmax,[2]; [23],~5 to 15 min
same,"Log Reduction of Microorganisms, Day 14",[3]; BSA,0.7 orders of orders of magnitude reduction
same,"Log Reduction, Day 14",[3]; PYY,4.7 orders of orders of magnitude reduction
same,"Log Reduction, Day 28",[3]; PYY,4.7 orders of orders of magnitude reduction
same,"Log Reduction of Microorganisms, Day 14",[4]; BSA,3.0 orders of orders of magnitude reduction
same,"Log Reduction of Microorganisms, Day 28",[4]; BSA,≧5.3 orders of orders of magnitude reduction
same,"Log Reduction, Day 14",[4]; PYY,≧4.5 orders of orders of magnitude reduction
same,"Log Reduction, Day 28",[4]; PYY,≧4.5 orders of orders of magnitude reduction
same,"Log Reduction of Microorganisms, Day 14",[5]; BSA,≧5.2 orders of orders of magnitude reduction
same,"Log Reduction of Microorganisms, Day 28",[5]; BSA,≧5.2 orders of orders of magnitude reduction
same,"Log Reduction, Day 14",[5]; PYY,≧4.9 orders of orders of magnitude reduction
same,"Log Reduction, Day 28",[5]; PYY,≧4.9 orders of orders of magnitude reduction
same,"Log Reduction of Microorganisms, Day 28",[6]; BSA,0.1 orders of orders of magnitude reduction
same,"Log Reduction, Day 14",[6]; PYY,≧5 orders of orders of magnitude reduction
same,"Log Reduction, Day 28",[6]; PYY,≧5 orders of orders of magnitude reduction
CCCCCCCCCCCC(=O)OC[C@H]1O[C@H](O[C@]2(CO)O[C@H](CO)[C@@H](O)[C@@H]2O)[C@H](O)[C@@H](O)[C@@H]1O [sucrose dodecanoate],irritation of the nasal mucosa,human nasal epithelium,no observable irritation
"CCCCCCCCCCCCCO[C@@H]1O[C@H](CO)[C@@H](O[C@H]2O[C@H](CO)[C@@H](O)[C@H](O)[C@H]2O)[C@H](O)[C@H]1O [tridecyl maltoside, tridecyl-β-D-maltoside]",Blood Glucose Concentration,"blood D-glucose [1]; 0.5% surfactant, time −10 min, before insulin eye drops",307 mg/dL
same,Blood Glucose Concentration,"blood D-glucose [1]; 0.5% surfactant, time −20 min, before insulin eye drops",255 mg/dL
same,hypoglycemic effect / insulin absorption enhancement,blood D-glucose [1]; [8],effective
same,hypoglycemic effect / insulin absorption enhancement,blood D-glucose [1]; eye drops 0.2% insulin + […] enhancer,sustained for the two hour time course
same,Blood Glucose Concentration,"blood D-glucose [1]; insulin eye drops + 0.5% surfactant, time 0 min",323 mg/dL
same,Blood Glucose Concentration,"blood D-glucose [1]; insulin eye drops + 0.5% surfactant, time 10 min",309 mg/dL
same,Blood Glucose Concentration,"blood D-glucose [1]; insulin eye drops + 0.5% surfactant, time 20 min",217 mg/dL
same,Blood Glucose Concentration,"blood D-glucose [1]; insulin eye drops + 0.5% surfactant, time 30 min",131 mg/dL
same,Blood Glucose Concentration,"blood D-glucose [1]; insulin eye drops + 0.5% surfactant, time 40 min",100 mg/dL
same,Blood Glucose Concentration,"blood D-glucose [1]; insulin eye drops + 0.5% surfactant, time 50 min",87 mg/dL
same,Blood Glucose Concentration,"blood D-glucose [1]; insulin eye drops + 0.5% surfactant, time 60 min",107 mg/dL
same,Blood Glucose Concentration,"blood D-glucose [1]; insulin eye drops + 0.5% surfactant, time 70 min",115 mg/dL
same,Blood Glucose Concentration,"blood D-glucose [1]; insulin eye drops + 0.5% surfactant, time 80 min",79 mg/dL
same,Blood Glucose Concentration,"blood D-glucose [1]; insulin eye drops + 0.5% surfactant, time 90 min",85 mg/dL
same,Blood Glucose Concentration,"blood D-glucose [1]; insulin eye drops + 0.5% surfactant, time 100 min",76 mg/dL
same,Blood Glucose Concentration,"blood D-glucose [1]; insulin eye drops + 0.5% surfactant, time 110 min",74 mg/dL
same,Blood Glucose Concentration,"blood D-glucose [1]; insulin eye drops + 0.5% surfactant, time 120 min",75 mg/dL
same,Ratio Cmax(alkylsacch)/Cmax(No alkylsacch),[2]; [9],≦1.5
same,Tmax,[2]; [9],~60 min
same,Ratio Cmax(alkylsacch)/Cmax(No alkylsacch),[2]; [10],≧1.5
same,Tmax,[2]; [10],~5 to 15 min
same,Ratio Cmax(alkylsacch)/Cmax(No alkylsacch),[2]; [11],≧1.5
same,Tmax,[2]; [11],~5 to 15 min
same,Ratio Cmax(alkylsacch)/Cmax(No alkylsacch),[2]; [12],≧1.5
same,Tmax,[2]; [12],~5 to 15 min
same,Ratio Cmax(alkylsacch)/Cmax(No alkylsacch),[2]; [13],≧1.5
same,Tmax,[2]; [13],~5 to 15 min
same,Tmax,[2]; [14],~60 min
same,Tmax,[2]; [15],~5 to 15 min
same,Tmax,[2]; [16],~5 to 15 min
same,Tmax,[2]; [17],~5 to 15 min
same,Tmax,[2]; [18],~5 to 15 min
same,Ratio Cmax(alkylsacch)/Cmax(No alkylsacch),[2]; [19],≦1.5
same,Tmax,[2]; [19],~60 min
same,Ratio Cmax(alkylsacch)/Cmax(No alkylsacch),[2]; [20],≧1.5
same,Tmax,[2]; [20],~5 to 15 min
same,Ratio Cmax(alkylsacch)/Cmax(No alkylsacch),[2]; [21],≧1.5
same,Tmax,[2]; [21],~5 to 15 min
same,Ratio Cmax(alkylsacch)/Cmax(No alkylsacch),[2]; [22],≧1.5
same,Tmax,[2]; [22],~5 to 15 min
same,Ratio Cmax(alkylsacch)/Cmax(No alkylsacch),[2]; [23],≧1.5
same,Tmax,[2]; [23],~5 to 15 min
same,glucagon absorption / blood D-glucose values,blood D-glucose [7]; eye drops surfactant plus glucagon in rats previously treated with surfactant plus insulin eye drops,increase significantly
same,Blood Glucose Concentration,blood D-glucose [7]; time 130 min,82 mg/dL
same,Blood Glucose Concentration,blood D-glucose [7]; time 140 min,121 mg/dL
same,Blood Glucose Concentration,blood D-glucose [7]; time 150 min,148 mg/dL
same,Blood Glucose Concentration,blood D-glucose [7]; time 160 min,173 mg/dL
same,Blood Glucose Concentration,blood D-glucose [7]; time 170 min,162 mg/dL
same,Blood Glucose Concentration,blood D-glucose [7]; time 180 min,162 mg/dL
same,Blood Glucose Concentration,blood D-glucose [7]; time 190 min,156 mg/dL
